According to patent publication US20230146233A1, “A CLASS OF POLYCYCLIC COMPOUNDS INHIBITING RNA HELICASE DHX33 AND THE APPLICATION THEREOF” (Shenzhen KeYe Life Technologies, Co., Ltd, priority 2020, published 2023):
pIC50: −log10 of the molar value.

The molecules below were run on U251-MG cells (assay: Half-maximal cell-inhibitory concentration on U251-MG cells (CCK-8)). Conditions: Homo sapiens, U-251, U251-MG cells (DHX33-overexpressing cancer cell strain), 48 hours, read-out: IC50 (half-maximal inhibitory concentrations of compounds on U251-MG cells).
Assay type: cell-based
Description: U251-MG cells were purchased from the cell bank of the Chinese Academy of Sciences. Cells were cultured in MEM medium containing 10% fetal bovine serum (FBS), 2 mM L-glutammie, streptomycmn and penicillin. The growth conditions were set as follows: a humidified cell incubator (37° C., 5% CO2). Cells were passaged every 3 days and were discarded after 10 passages.
U251-MG cells (a […]-overexpressing cancer cell strain) were seeded on a 96-well plate at 1×10^4 cells/100 μl/well. After the cells were completely attached, the compounds were added to the cell culture medium at a concentration of 5 nM, 10 nM, 25 nM, 50 nM, 100 nM, […], 500 nM, 1000 nM, 2000 nM, […] or 20 μM, and the resulting mixture was uniformly mixed with a multichannel pipette. After the cells were incubated with the compound for 48 hours, CCK-8 reagent (Yeasen Biotechnology (Shanghai) Co., Ltd.) was added to the medium in the 96-well plate in accordance with the standard procedure. After being incubated for 2 hours, the plate was read with a microplate reader (OD=450 nm). The experiment was repeated three times, the inhibition curve of the compound at different concentrations was plotted, and the half-maximal inhibitory concentration (IC50) of the compound was calculated.

**Q.** `Cc1oc(-n2c(C)cc(/C=C(\C#N)c3nc4ccc(Cl)cc4[nH]3)c2C)c(C#N)c1C` [AB24201, (E)-2-(3-(2-(6-chloro-1H-benzo[d]imidazol-2-yl)-2-cyanovinyl)-2,5-dimethyl-1H-pyrrol-1-yl)-4,5-dimethylfuran-3-carbonitrile] was tested. Which pIC50 did it give?
**A.** 5.30 to 6.00

**Q.** With `Cc1ccc2nc(/C(C#N)=C/c3cc(C)n(-c4oc(C)c(C)c4C#N)c3C)[nH]c2c1` [AB24203, (E)-2-(3-(2-cyano-2-(6-methyl-1H-benzo[d]imidazol-2-yl]vinyl)-2,5-dimethyl-1H-pyrrol-1-yl)-4,5-dimethylfuran-3-carbonitrile] as the molecule, how does the pIC50 read?
**A.** 5.30 to 6.00

**Q.** With `Cc1oc(-n2c(C)cc(/C=C(\C#N)c3nc4ccc(C(=O)NCCN(C)C)cc4[nH]3)c2C)c(C#N)c1C` [AB24206, (E)-2-(1-cyano-2-(1-(3-cyano-4,5-dimethylfuran-2-yl)-2,5-dimethyl-1H-pyrrol-3-yl)vinyl)-N-(2-(dimethylamino)ethyl)-1H-benzo[d]imidazole-6-carboxamide] as the molecule, how does the pIC50 read?
**A.** 5.30 to 6.00

**Q.** With `CCOC(=O)c1ccc2nc(/C(C#N)=C/c3cc(C)n(-c4oc(C)c(C)c4C#N)c3C)[nH]c2c1` [AB24208, ethyl (E)-2-(1-cyano-2-(1-(3-cyano-4,5-dimethylfuran-2-yl)-2,5-dimethyl-1H-pyrrol-3-yl)vinyl)-1H-benzo[d]imidazole-6-carboxylate] as the molecule, how does the pIC50 read?
**A.** 4.70 to 5.30

**Q.** `Cc1oc(-n2c(C)cc(/C=C(\C#N)c3nc4ccc(Br)cc4[nH]3)c2C)c(C#N)c1C` [AB24213, (E)-2-(3-(2-(6-bromo-1H-benzo[d]imidazol-2-yl)-2-cyanovinyl)-2,5-dimethyl-1H-pyrrol-1-yl)-4,5-dimethylfuran-3-carbonitrile] was tested. Which pIC50 did it give?
**A.** 5.30 to 6.00

**Q.** How did the pIC50 turn out when `Cc1oc(-n2c(C)cc(/C=C(\C#N)c3nc4cc(Cl)c(Cl)cc4[nH]3)c2C)c(C#N)c1C` [AB24214, (E)-2-(3-(2-cyano-2-(5,6-dichloro-1H-benzo[d]imidazol-2-yl)vinyl)-2,5-dimethyl-1H-pyrrol-1-yl)-4,5-dimethylfuran-3-carbonitrile] was run?
**A.** 4.70 to 5.30

**Q.** How did the pIC50 turn out when `Cc1oc(-n2c(C)cc(/C=C(\C#N)c3nc4ccc([N+](=O)[O-])cc4[nH]3)c2C)c(C#N)c1C` [AB24217, (E)-2-(3-(2-cyano-2-(6-nitro-1H-benzo[d]imidazol-2-yl)vinyl)-2,5-dimethyl-1H-pyrrol-1-yl)-4,5-dimethylfuran-3-carbonitrile] was run?
**A.** 4.70 to 5.30

**Q.** With `Cc1oc(-n2c(C)cc(/C=C(\C#N)c3nc4ccc(N)cc4[nH]3)c2C)c(C#N)c1C` [AB24221, (E)-2-(3-(2-(6-amino-1H-benzo[d]imidazol-2-yl)-2-cyanovinyl)-2,5-dimethyl-1H-pyrrol-1-yl)-4,5-dimethylfiran-3-carbonitrile] as the molecule, how does the pIC50 read?
**A.** 4.70 to 5.30

**Q.** `Cc1cc(/C=C(\C#N)c2nc3ccccc3[nH]2)c(C)n1-c1ccc(C#N)cc1` [AB24223] was tested. Which pIC50 did it give?
**A.** 4.70 to 5.30

**Q.** With `Cc1oc(-n2c(C)cc(/C=C(\C#N)c3nc4ccc(CO)cc4[nH]3)c2C)c(C#N)c1C` [AB24225, (E)-2-(3-(2-cyano-2-(6-(hydroxymethyl)-1H-benzo[d]imidazol-2-yl)vinyl)-2,5-dimethyl-1H-pyrrol-1-yl)-4,5-dimethylfuran-3-carbonitrile] as the molecule, how does the pIC50 read?
**A.** 5.30 to 6.00

**Q.** `Cc1cc(/C=C(\C#N)c2nc3ccccc3[nH]2)c(C)n1-c1ccccc1C#N` [AB24227] was tested. Which pIC50 did it give?
**A.** 4.70 to 5.30

**Q.** With `COc1cc2nc(/C(C#N)=C/c3cc(C)n(-c4oc(C)c(C)c4C#N)c3C)[nH]c2cc1OC` [AB24229, (E)-2-(3-(2-cyano-2-(5,6-dimethoxy-1H-benzo[d]imidazol-2-yl)vinyl)-2,5-dimethyl-H-pyrrol-1-yl)-4,5-dimethylfuran-3-carbonitrile] as the molecule, how does the pIC50 read?
**A.** 5.30 to 6.00

**Q.** With `Cc1cc(/C=C(\C#N)c2nc3ccccc3[nH]2)c(C)n1-c1cccs1` [AB24233] as the molecule, how does the pIC50 read?
**A.** 4.70 to 5.30

**Q.** How did the pIC50 turn out when `Cc1ccc(-n2c(C)cc(/C=C(\C#N)c3nc4ccccc4[nH]3)c2C)cc1` [AB24237] was run?
**A.** 4.70 to 5.30

**Q.** How did the pIC50 turn out when `Cc1oc(-n2c(C)cc(/C=C(\C#N)c3nc4cc(Cl)cc(Cl)c4[nH]3)c2C)c(C#N)c1C` [AB24239] was run?
**A.** 5.30 to 6.00

**Q.** How did the pIC50 turn out when `COc1cc2[nH]c(/C(C#N)=C/c3cc(C)n(-c4oc(C)c(C)c4C#N)c3C)nc2cc1F` [AB24246, (E)-2-(3-(2-cyano-2-(5-fluoro-6-methoxy-1H-benzo[d]imidazol-2-yl]vinyl)-2,5-dimethyl-1H-pyrrol-1-yl)-4,5-dimethylfuran-3-carbonitrile] was run?
**A.** 5.30 to 6.00

**Q.** How did the pIC50 turn out when `Cc1cc(/C=C(\C#N)c2nc3ccccc3[nH]2)c(C)n1-c1ccccn1` [AB24258] was run?
**A.** 4.70 to 5.30

**Q.** With `COc1cc2[nH]c(/C(C#N)=C/c3cc(C)n(-c4oc(C)c(C)c4C#N)c3C)nc2cc1Br` [AB24266, (E)-2-(3-(2-(5-bromo-6-methoxy-1H-benzo[d]imidazol-2-yl]-2-cyanovinyl)-2,5-dimethyl-1H-pyrrol-1-yl)-4,5-dimethylfuran-3-carbonitrile] as the molecule, how does the pIC50 read?
**A.** 5.30 to 6.00

**Q.** How did the pIC50 turn out when `CC(=O)Nc1ccc(-n2c(C)cc(/C=C(\C#N)c3nc4ccccc4[nH]3)c2C)cc1` [AB24267] was run?
**A.** 4.70 to 5.30

**Q.** With `COC(=O)c1c(-n2c(C)cc(/C=C(\C#N)c3nc4ccccc4[nH]3)c2C)sc(C)c1C` [AB24273, methyl (E)-2-(3-(2-(1H-benzo[d]imidazol-2-yl)-2-cyanovinyl)-2,5-dimethyl-1H-pyrrol-1-yl)-4,5-dimethylthiophene-3-carboxylate] as the molecule, how does the pIC50 read?
**A.** 6.00 to 7.00

**Q.** How did the pIC50 turn out when `Cc1cc(/C=C(\C#N)c2nc3ccccc3[nH]2)c(C)n1-c1csc(C#N)c1` [AB24276] was run?
**A.** 4.70 to 5.30

**Q.** With `Cc1csc(-n2c(C)cc(/C=C(\C#N)c3nc4ccccc4[nH]3)c2C)c1C#N` [AB24277] as the molecule, how does the pIC50 read?
**A.** 4.70 to 5.30

**Q.** With `COc1ccc2nc(/C(C#N)=C/c3cc(C)n(-c4oc(C)c(C)c4C#N)c3C)[nH]c2n1` [AB24281, (E)-2-(3-(2-cyano-2-(5-methoxy-3H-imidazo[4,5-b]pyridin-2-yl)vinyl)-2,5-dimethyl-1H-pyrrol-1-yl)-4,5-dimethylfuran-3-carbonitrile] as the molecule, how does the pIC50 read?
**A.** 5.30 to 6.00

**Q.** How did the pIC50 turn out when `Cc1nn(-c2ccccc2)c(C)c1/C=C(\C#N)c1nc2ccccc2[nH]1` [AB24284, (E)-2-(1H-benzo[d]imidazol-2-yl)-3-(3,5-dimethyl-1-phenyl-1H-pyrazol-4-yl)acrylonitrile] was run?
**A.** 4.70 to 5.30

**Q.** How did the pIC50 turn out when `Cc1nn(-c2cccc(C(F)(F)F)c2)c(C)c1/C=C(\C#N)c1nc2ccccc2[nH]1` [AB24285, (E)-2-(1H-benzo[d]imidazol-2-yl)-3-(3,5-dimethyl-1-(3-(trifluoromethyl)phenyl)-1H-pyrazol-4-yl)acrylonitrile] was run?
**A.** 4.70 to 5.30

**Q.** With `Cc1oc(-n2c(C)cc(/C=C(\C#N)c3nc4cc5c(cc4[nH]3)OCCO5)c2C)c(C#N)c1C` [AB24287, (E)-2-(3-(2-cyano-2-(6,7-dihydro-1H-[1,4]dioxin[2′,3′: 4,5]benzo[1,2-d]imidazol-2-yl)vinyl)-2,5-dimethyl-1H-pyrrol-1-yl)-4,5-dimethylfuran-3-carbonitrile] as the molecule, how does the pIC50 read?
**A.** 5.30 to 6.00

**Q.** How did the pIC50 turn out when `COc1cc2nc(/C(C#N)=C/c3cc(C)n(-c4ccncc4Cl)c3C)[nH]c2cn1` [AB24289, (E)-3-(1-(3-chloropyridin-4-yl)-2,5-dimethyl-1H-pyrrol-3-yl)-2-(6-methoxy-3H-imidazo[4,5-c]pyridin-2-yl)acryonitrile] was run?
**A.** 5.30 to 6.00

**Q.** How did the pIC50 turn out when `Cc1nn(-c2ccccc2OC(F)(F)F)c(C)c1/C=C(\C#N)c1nc2ccccc2[nH]1` [AB24290, (E)-2-(1H-benzo[d]imidazol-2-yl)-3-(3,5-dimethyl-1-(2-(trifluoromethoxy)phenyl)-1H-pyrazol-4-yl)acrylonitrile] was run?
**A.** 4.70 to 5.30

**Q.** `COc1cc2nc(/C(C#N)=C/c3cc(C)n(-c4ccncc4C)c3C)[nH]c2cn1` [AB24295, (E)-3-(2,5-dimethyl-1-(3-methylpyridin-4-yl)-1H-pyrrol-3-yl)-2-(6-methoxy-3H-imidazo[4,5-c]pyridin-2-yl)acrylonitrile] was tested. Which pIC50 did it give?
**A.** 5.30 to 6.00

**Q.** How did the pIC50 turn out when `COc1cc2nc(/C(C#N)=C/c3cc(C)n(-c4ccncc4F)c3C)[nH]c2cn1` [AB24300, (E)-3-(1-(3-fluoropyridin-4-yl)-2,5-dimethyl-1H-pyrrol-3-yl)-2-(6-methoxy-3H-imidazo[4,5-c]pyridin-2-yl)acrylonitrile] was run?
**A.** 5.30 to 6.00

**Q.** `COc1cnc2[nH]c(/C(C#N)=C/c3cc(C)n(-c4sc(C)c(C)c4C#N)c3C)nc2c1` [AB24301, (E)-2-(3-(2-cyano-2-(6-methoxy-3H-imidazo[4,5-b]pyridin-2-yl)vinyl)-2,5-dimethyl-1H-pyrrol-1-yl)-4,5-dimethylthiophene-3-carbonitrile] was tested. Which pIC50 did it give?
**A.** 6.00 to 7.00

**Q.** With `COc1cncc2nc(/C(C#N)=C/c3cc(C)n(-c4sc(C)c(C)c4C#N)c3C)[nH]c12` [AB24302, (E)-2-(3-(2-cyano-2-(7-methoxy-1H-imidazo[4,5-c]pyridyl-2-yl)vinyl)-2,5-dimethyl-1H-pyrrol-1-yl)-4,5-dimethylthiophene-3-carbonitrile] as the molecule, how does the pIC50 read?
**A.** 5.30 to 6.00

**Q.** `COc1ccc2nc(/C(C#N)=C/c3cc(C)n(-c4ccccc4C#N)c3C)[nH]c2c1` [AB24307, (E)-2-(3-(2-cyano-2-(6-methoxy-1H-benzo[d]imidazol-2-yl]vinyl)-2,5-dimethyl-1H-pyrrol-1-yl)benzonitrile] was tested. Which pIC50 did it give?
**A.** 4.70 to 5.30

**Q.** `COc1cc2nc(/C(C#N)=C/c3cc(C)n(-c4sc(C)c(C)c4C#N)c3C)[nH]c2cn1` [AB24308, (E)-2-(3-(2-cyano-2-(6-methoxy-3H-imidazo[4,5-c]pyridin-2-yl)vinyl)-2,5-dimethyl-1H-pyrrol-1-yl)-4,5-dimethylthiophene-3-carbonitrile] was tested. Which pIC50 did it give?
**A.** > 7.00

**Q.** `COc1nccc2nc(/C(C#N)=C/c3cc(C)n(-c4sc(C)c(C)c4C#N)c3C)[nH]c12` [AB24309] was tested. Which pIC50 did it give?
**A.** 5.30 to 6.00
